# Data taken from patent US12458666B2 (DOUBLE BOND PHARMACEUTICALS AB, priority 2019, dated 2025).
# Where two headings read alike, the source gives them in different places.
# Experiments:
# [1] = cited from earlier work; for Ferritin level after treatment: HF, ejection fraction <40% and anaemia
# [2] = for median ferritin level: thirteen patients who took study medication according to protocol for 12 weeks, baseline 42 (32-57.5); for Hemoglobin / hsCRP / Hepcidin / Transferrin / Iron / TSAT (transferrin saturation) / Ferritin: intention to treat, 100 mg tablet orally twice a day; for Hemoglobin: 20 patients, baseline 144; for hsCRP: baseline 2.0; for Hepcidin: baseline 2.5; for Transferrin: baseline 2.6; for Iron: baseline 13.5; for TSAT (transferrin saturation): baseline 20; for Ferritin: baseline 47
# Protocol: Most of these patients were screened during the year 2018 until January 2019 were the target population. […] These 42 patients defined by inclusion and exclusion criteria for participation were called by phone and informed about the study. After having given oral and written consent to participate blood sampling was performed to confirm or reject the presence of non-anemic ID.
# • All patients with a case record diagnosis of HF, both those with preserved EF or reduced EF were potentially eligible, provided there were no contraindications to participate. • The diagnosis of HF was on symptoms and an ECHO verified reduction of cardiac function, systolic and/or diastolic dysfunction. Those with an EF=<40% were classified as HFrEF and those with EF>40% as preserved HF.
# (§1) The study was planned as an open pilot study without placebo control. The study was performed at the research unit at the department of Medicine-Geriatric, a special heart failure case record with laboratory data was filed before the start of the study, after six weeks and after 3 months (±2 weeks) at the end of study. Adverse reactions and side effects were registered at each visit.
# Inofer® is an oral product against ID in a form of film-coated tablets. […] The patients are given one tablet ( )twice a day during a period of at least three months.
# 1 tablet was taken in the morning and 1 tablet was taken in the evening at bedtime for at least 3 months. The tablet was not taken with food.
# Blood sampling was performed according to local and current guidelines. Blood was centrifuged, divided into aliquots and stored at minus 80° C. in a safe deposit box, Biobank Västerbotten, until analysis. Hemoglobin, CRP, ferritin, serum iron, TSAT and hepcidin were analyzed before start, at 6 weeks and 3 months after treatment.
# Continuous variables are presented as means ±standard deviation for normally distributed values, median and interquartile range for skewed variables, and numbers and percentages for categorical variables. Due to skewed variables for ferritin and TSAT non-parametric test was used for related or independent data. Data were analysed using IBM SPSS Software version 24 (IBM Corp. Chicago, Illinois, USA).
# [3] = Protocol: as §1
# [4] = irrespective if iron was given orally or intravenously; cited from earlier work
# [5] = long-term intravenous therapy; cited from earlier work
# [6] = cited from earlier work
# [7] = after oral iron succinate treatment
# [8] = percentage of patients exhibiting the symptom in the study
molecule,measurement,setting,value
O=S(=O)([O-])[O-].[Fe+2] [ferrous sulphate],"increase of TSAT, oral vs. intravenous administration of iron",[1]; oral 200 mg 3 times a day compared with intravenous iron sucrose,less
same,Ferritin level after treatment,"[1]; oral 200 mg 3 times a day, from 115±141",218 ± 189 ng/mL
"O=C([O-])CCC(=O)[O-].[Fe+2] [iron succinate, ferrous succinate]",increase of ferritin levels in patients with HFpEF compared with HFrEF,[2]; [7],about the same magnitude
same,uptake (levels) in females compared with males,[2]; [7],increased rather equally
same,median ferritin level,[2]; at 6 weeks,83 (61-110.5) μg/L
same,median ferritin level,[2]; at 12 weeks,87 µg/L
same,Hemoglobin,[2]; median at 6 weeks,138 g/L
same,hsCRP,[2]; median at 6 weeks,2.0 mg/L
same,Hepcidin,"[2]; median at 6 weeks, p=0.006",4.8 nmol/L
same,Transferrin,"[2]; median at 6 weeks, p=0.038",2.4 g/L
same,Iron,[2]; median at 6 weeks,16.5 µmol/L
same,TSAT (transferrin saturation),"[2]; median at 6 weeks, p=0.046",27%
same,Ferritin,"[2]; median at 6 weeks, p=0.009",78 µg/L
same,Hemoglobin,[2]; median at 12 weeks,142 g/L
same,hsCRP,[2]; median at 12 weeks,1.9 mg/L
same,Hepcidin,"[2]; median at 12 weeks, p=0.026",4.2 nmol/L
same,Transferrin,"[2]; median at 12 weeks, p=0.009",2.3 g/L
same,Iron,[2]; median at 12 weeks,16.0 µmol/L
same,TSAT (transferrin saturation),"[2]; median at 12 weeks, p=0.043",25%
same,Ferritin,"[2]; median at 12 weeks, p=0.001",85 µg/L
same,TSAT at EOS,"[2]; one patient who stopped study medication after 3.5 weeks, baseline 16",21%
same,ferritin level at EOS,"[2]; one patient who stopped study medication after 3.5 weeks, baseline 198",237 µg/L
same,increase of ferritin level from baseline to EOS,[2]; one patient who took only one tablet per day for 2.5 weeks,38%
same,increase of ferritin level from baseline to EOS,[2]; one patient who took only one tablet per day for 6 weeks,174%
same,increase of ferritin level from baseline to EOS,[2]; one patient who took only one tablet per day for 7.5 weeks,95%
same,patients who stopped study medication because of vomiting or diarrhea,[3]; of 20 patients,Three
same,patients who stopped study medication before EOS,[3]; of 20 patients,four
same,"Breathlessness, %",[3]; [8],90%
same,"Constipation, %",[3]; [8],20%
same,"Diarrhea, %",[3]; [8],5%
same,"Stomic pain, %",[3]; [8],10%
same,"Tiredness, %",[3]; [8],80%
same,uptake compared to other iron compounds,[4],most favourable uptake
ferric carboxymaltose,symptomatic and morbidity effects in patients with HF,[5],beneficial symptomatic and morbidity effects
iron polysaccharide,uptake in iron deposits,"[6]; high dose oral, 16 weeks, HFrEF",marginal uptake
same,exercise capacity over 16 weeks,"[6]; high dose oral, HFrEF",did not improve exercise capacity
same,TSAT increase,"[6]; oral 150 mg twice daily for 16 weeks, HFrEF (<40%) and iron deficiency, CI −3 to 7, placebo 0, p=0.003",2%
same,Ferritin increase,"[6]; oral 150 mg twice daily for 16 weeks, HFrEF (<40%) and iron deficiency, CI −8 to 38, placebo 1",18 ng/mL
iron sucrose,Ferritin level after treatment,"[1]; intravenous 200 mg per week for 5 weeks, from 167±149",293 ± 270 ng/mL
